Results published in publication PMC9934914, “A novel class of sulphonamides potently block malaria transmission by targeting a Plasmodium vacuole membrane protein” (Disease Models & Mechanisms, 2023).

Key:
[1] = molecular target: T1, Pfs16 (Plasmodium falciparum, UniProt Q6ZMA7); assay: CETSA melt curve with immunoblot; type: biochemical; conditions: 100 µM compound
T1 construct: native full-length protein in stage V gametocytes or their Triton X-100 lysate; 157 residues, 16 kDa, one TM domain
T1 sequence (Q6ZMA7 26-157): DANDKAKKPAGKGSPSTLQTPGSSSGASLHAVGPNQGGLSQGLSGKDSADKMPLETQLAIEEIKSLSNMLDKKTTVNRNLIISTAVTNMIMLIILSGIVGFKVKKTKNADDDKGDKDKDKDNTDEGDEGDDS

[2] = molecular target: T1, Pfs16; assay: photoaffinity labelling of live gametocytes, pulldown, TMT LC-MS/MS and immunoblot; type: cell-based; conditions: covalent (aryl azide photo-crosslink, 254 nm); 2.5 to 10 µM probe, 37 °C

`O=S(=O)(NCC1(O)CCOc2ccccc21)c1cccc(Br)c1` (single isomer, unassigned; (-)) [(−)-DDD01028076] was tested. Which Tm shift ([1]; pH 7.5, stage V gametocyte lysate) did it give?
Its Tm shift is “A shift in the Pfs16 melting curve was also evident in the presence of (−)-DDD01028076”.

Which Tm shift ([1]; pH 7.5, activated stage V gametocyte lysate, also isothermal dose response at 78.4 °C, 1 nM to 100 µM) does the source give for `O=S(=O)(NCC1(O)CCOc2ccccc21)c1ccc(Br)s1` (stereo not drawn) [DDD01035881] here?
The Tm shift was “DDD01035881 treatment clearly resulted in a positive shift in the Pfs16 melting curve”.

For `C#Cc1ccc2c(c1)C(O)(CNS(=O)(=O)c1cccc(N=[N+]=[N-])c1)CCO2` (stereo not drawn) [compound 2, probe 2], which “photoaffinity labelling of live gametocytes, pulldown, TMT LC-MS/MS and immunobl” value [2] is on record?
The value was “a dose-dependent pulldown of Pfs16 was clearly observed”.
